In brackets after ≈: the same amount, converted by molar mass. Several values for one entry are separate records, joined by “and”; a condition that tells them apart may be missing. Equal values may be shown once.
Key:
[1] = system: A431 (EGFR over-expressing skin cancer); experiment: In vitro anticancer assay (SRB), A431; format: cell-based, human
Method: (§1) In Vitro Anticancer Assay (Nakanishi, Y. et al., J. Med. Chem. 2003, 46, 3185). All stock cultures were grown in T-25 flasks. Freshly trypsinized cell suspensions were seeded in 96-well microtiter plates at densities of 1500-7500 cells per well with compounds added from DMSO-diluted stock. After 3 days in culture, attached cells were fixed with cold 50% trichloroacetic acid and then stained with 0.4% sulforhodamine B (SRB). The absorbency at 562 nm was measured using a microplate reader after solubilizing the bound dye. The mean ED50 is the concentration of agent that reduces cell growth by 50% under the experimental conditions and is the average from at least three independent determinations that were reproducible and statistically significant (FIG. 2). The following human tumor cell lines were used in the assay: A549 (non small cell lung cancer), MCF-7 (estrogen receptor positive breast cancer), ZR-75-1 (estrogen receptor positive breast cancer), MDA-MB-231 (estrogen receptor negative breast cancer), HS 587-T (estrogen receptor negative breast cancer), SK− BR-3 (HER-2-overexpressing breast cancer), A431 (EGFRoverexpressing skin cancer), LN-CaP (AR-dependent prostate cancer), SW620 (colon cancer), PC-3 (prostate cancer), KB (nasopharyngeal carcinoma), KB-VIN (vincristine-resistant KB subline). All cell lines were obtained from the Lineberger Comprehensive Cancer Center (UNC-CH) or from ATCC (Rockville, Md.) and were cultured in RPMI-1640 medium supplemented with 25 mMHEPES, 0.25% sodium bicarbonate, 10% fetal bovine serum, and 100 μg/mL kanamycin.
(§2) Biological assay. All stock cultures are grown in T-25 flasks. Freshly trypsinized cell suspensions were seeded in 96-well microtitre plates at densities of 1500-7500 cells per well with compounds added from DMSO-diluted stock. After 3 days in culture, attached cells were fixed with cold 50% trichloroacetic acid and then stained with 0.4% sulforhodamine B (SRB). The absorbency at 562 nm was measured using a microplate reader after solubilizing the bound dye. The mean ED50 is the concentration of agent that reduces cell growth by 50% under the experimental conditions and is the average from at least three independent determinations that were reproducible and statistically significant. The following human tumor cell lines were used in the assay: A549 (non-small cell lung cancer), MCF-7 (estrogen receptor positive breast cancer), ZR-75-1 (estrogen receptor positive breast cancer), MDA MB-231 (estrogen receptor negative breast cancer), HS 587-T (estrogen receptor negative breast cancer), SK-BR-3 (estrogen receptor negative, HER-2 over-expressing breast cancer), A431 (EGFR over-expressing skin cancer), LN-CaP (AR-dependent prostate cancer), SW620 (colon cancer), PC-3 (prostate cancer), KB (nasopharyngeal carcinoma), KB-VIN (Vincristine resistant KB subline). All cell lines were obtained from the Lineberg Cancer Center (UNC-CH) or from ATCC (Rockville, Md.) and were cultured in RPMI-1640 medium supplemented with 25 mM HEPES, 0.25% sodium bicarbonate, 10% fetal bovine serum, and 100 μg/mL kanamycin.

[2] = system: KB (nasopharyngeal carcinoma); experiment: In vitro anticancer assay (SRB), KB; format: cell-based, human
Method: as §1, §2

[3] = system: MDA-MB-231 (estrogen receptor negative breast cancer); experiment: In vitro anticancer assay (SRB), MDA-MB-231; format: cell-based, human; details: for ED50, MDA-MB-231 (ER−) / IC50: concentration that reduces cell growth by 50%, 3 days in culture, SRB; for IC50: Homo sapiens, MDA-MB-231, 72 h, read-out: ED50, MDA-MB-231 (ER−)
Method: (§3) All stock cultures were grown in T-25 flasks. Freshly trypsinized cell suspensions were seeded in 96-well microtiter plates at densities of 1500-7500 cells per well with compounds added from DMSO-diluted stock. After 3 days in culture, attached cells were fixed with cold 50% trichloroacetic acid and then stained with 0.4% sulforhodamine B (SRB). The absorbency at 562 nm was measured using a microplate reader after solubilizing the bound dye.
as §3, with “Biological assay. All” for “All”, “cultures are” for “cultures were”, “96-well microtitre” for “96-well microtiter”

[4] = system: ER+ human breast cancer (MCF-7 and ZR-75-1); experiment: Comparison of potency and selectivity against ER+ breast cancer cell lines in vitro; format: cell-based; details: for times better activity than compound 2a and tamoxifen: against ER+ cell lines
Method: as §1
as §3, with “Biological assay. All” for “All”, “cultures are” for “cultures were”, “96-well microtitre” for “96-well microtiter”, “dye. The mean ED50 is the concentration of agent that reduces cell growth by 50% under the experimental conditions and is the average from at least three independent determinations that were reproducible and statistically significant. […]” for “dye.”

[5] = system: KB-VIN (vincristine-resistant KB subline); experiment: In vitro anticancer assay (SRB), KB-VIN; format: cell-based, human
Method: as §1
as §3, with “Biological assay. All” for “All”, “cultures are” for “cultures were”, “96-well microtitre” for “96-well microtiter”, “dye. […]” for “dye.”

[6] = system: HS 587-T (estrogen receptor negative breast cancer); experiment: In vitro anticancer assay (SRB), HS 587-T; format: cell-based, human; details: concentration that reduces cell growth by 50%, 3 days in culture, printed HS587-1 in Table 4
Method: as §3
as §3, with “Biological assay. All” for “All”, “cultures are” for “cultures were”, “96-well microtitre” for “96-well microtiter”

[7] = system: SK-BR-3 (HER-2-overexpressing breast cancer); experiment: In vitro anticancer assay (SRB), SK-BR-3; format: cell-based, human
Method: as §1, §2

[8] = system: LN-CaP (AR-dependent prostate cancer); experiment: In vitro anticancer assay (SRB), LN-CaP; format: cell-based, human
Method: as §1
as §3, with “Biological assay. All” for “All”, “cultures are” for “cultures were”, “96-well microtitre” for “96-well microtiter”, “dye. The mean ED50 is the concentration of agent that reduces cell growth by 50% under the experimental conditions and is the average from at least three independent determinations that were reproducible and statistically significant. […]” for “dye.”

[9] = system: PC-3 (prostate cancer); experiment: In vitro anticancer assay (SRB), PC-3; format: cell-based, human; details: concentration that reduces cell growth by 50%, 3 days in culture
Method: as §3, with “In Vitro Anticancer Assay (Nakanishi, Y. et al., J. Med. Chem. 2003, 46, 3185). All” for “All”, “dye. The mean ED50 is the concentration of agent that reduces cell growth by 50% under the experimental conditions and is the average from at least three independent determinations that were reproducible and statistically significant (FIG. 2). […]” for “dye.”
(§4) Biological assay. […] The absorbency at 562 nm was measured using a microplate reader after solubilizing the bound dye. […]

[10] = system: A549 (non small cell lung cancer); experiment: In vitro anticancer assay (SRB), A549; format: cell-based, human
Method: as §3, with “In Vitro Anticancer Assay (Nakanishi, Y. et al., J. Med. Chem. 2003, 46, 3185). All” for “All”, “dye. The mean ED50 is the concentration of agent that reduces cell growth by 50% under the experimental conditions and is the average from at least three independent determinations that were reproducible and statistically significant (FIG. 2). […]” for “dye.”
as §4

[11] = system: MCF-7 (estrogen receptor positive breast cancer); experiment: In vitro anticancer assay (SRB), MCF-7; format: cell-based, human; details: for ED50, MCF-7 (ER+) / IC50: concentration that reduces cell growth by 50%, 3 days in culture, SRB; for IC50: Homo sapiens, MCF7, 72 h, read-out: ED50, MCF-7 (ER+)
Method: as §3
as §3, with “Biological assay. All” for “All”, “cultures are” for “cultures were”, “96-well microtitre” for “96-well microtiter”

[12] = system: several human cancer cell lines; experiment: Cytotoxic activity against several human tumor cell lines (panel, overall statements); format: cell-based; details: at concentrations up to 10 μg/mL
Method: as §1
as §3, with “Biological assay. All” for “All”, “cultures are” for “cultures were”, “96-well microtitre” for “96-well microtiter”, “dye. […]” for “dye.”

[13] = system: SW620 (colon cancer); experiment: In vitro anticancer assay (SRB), SW620; format: cell-based, human
Method: as §1, §2

[14] = system: ZR-75-1 (estrogen receptor positive breast cancer); experiment: In vitro anticancer assay (SRB), ZR-75-1; format: cell-based, human; details: concentration that reduces cell growth by 50%, 3 days in culture; for IC50: Homo sapiens, ZR-75-1, 72 h, read-out: ED50, ZR-75-1 (ER+)
Method: as §3
as §3, with “Biological assay. All” for “All”, “cultures are” for “cultures were”, “96-well microtitre” for “96-well microtiter”

[15] = concentration that reduces cell growth by 50%, 3 days in culture, SRB
[16] = listed as Neo-tashinlactone (1)
[17] = against ER+ (ER+ and HER-2++) breast cancer in vitro

Cc1cccc2c1ccc1c3occ(C)c3c(=O)oc21 [Compound 1, Neo-tanshinlactone]
activity against A431 (in words) ([1]; EGFR overexpressing skin cancer cell line): essentially inactive | Percent inhibition at the test concentration (bracketed value), A431 ([1]; at 10 μg/mL (Table 2)): 35% | ED50, A431 [1, 15]: > 10 µg/mL | Percent inhibition at the test concentration (bracketed value), KB ([2]; at 10 μg/mL (Table 2)): 18% | ED50, KB [2, 15]: > 10 µg/mL | Percent inhibition at the test concentration (bracketed value), MDA-MB-231 ([3]; at 20 μg/mL (Table 1)): 17% | ED50, MDA-MB-231 (ER−) [3]: 10 µg/mL and 10.0 µg/mL | ED50, MDA-MB-231 (ER−) [3, 16]: > 20 µg/mL | fold more potent than tamoxifen citrate [4, 17]: 10 fold | fold more selective than tamoxifen citrate [4, 17]: 20 fold | times better activity than compound 2a and tamoxifen [4]: 10 times | Percent inhibition at the test concentration (bracketed value), KB-VIN ([5]; at 10 μg/mL (Table 2)): 9% | ED50, KB-VIN [5, 15]: > 10 µg/mL | ED50, HS 587-T (ER−) [6]: 16 µg/mL and 16.0 µg/mL | activity against SK-BR-3 (in words) ([7]; HER-2-overexpressing breast cancer cell line): active | ED50, SK-BR-3 (ER−, HER2+) [7, 15]: 0.2 µg/mL and 0.18 µg/mL | fold more sensitive, SK-BR-3 versus MCF-7 ([7]; ratio of sensitivity of the two cell lines): 3 fold | activity against LN-CaP (in words) ([8]; AR-dependent prostate cancer cell line): essentially inactive | Percent inhibition at the test concentration (bracketed value), LN-CaP ([8]; at 10 μg/mL (Table 2)): 28-36% | ED50, LN-CaP [8, 15]: > 10 µg/mL | ED50, PC-3 [9]: 10 µg/mL (≈ 37.8 µM) | Percent inhibition at the test concentration (bracketed value), A549 ([10]; at 20 μg/mL (Table 1)): 10% | ED50, A549 [10, 15]: > 20 µg/mL | Percent inhibition at the test concentration (bracketed value), MCF-7 ([11]; at 2.5 μg/mL (Table 1)): 57% | ED50, MCF-7 (ER+) [11]: 0.6 µg/mL and 0.60 µg/mL | ED50, MCF-7 (ER+) [11, 16]: < 2.5 µg/mL | concentration at which active against MCF-7 ([11]; first screen, Example 1): 0.6˜1.2 μg/mL | activity against other cell lines in the panel (in words) [12]: insignificant activity | Percent inhibition at the test concentration (bracketed value), SW620 ([13]; at 10 μg/mL (Table 2)): 22% | ED50, SW620 [13, 15]: > 10 µg/mL | ED50, ZR-75-1 (ER+) [14]: 0.25 µg/mL (≈ 0.946 µM)

Cc1coc2c1c(=O)oc1c3ccccc3ccc21 [Compound 2a, 17-Methyl-11,15-dioxa-cyclopenta[a]phenanthren-12-one]
IC50 [3]: 10.3 µg/mL (≈ 41.2 µM) | ED50, HS 587-T (ER−) [6]: 7.5 µg/mL (≈ 30 µM) | melting point: 205 to 207 °C | IC50 [11]: 4 µg/mL (≈ 16 µM) | IC50 [14]: 4 µg/mL (≈ 16 µM)

CCc1cccc2c1ccc1c3occ(C)c3c(=O)oc21 [Compound 2c, 4-Ethyl-17-methyl-11,15-dioxa-cyclopenta[a]phenanthren-12-one]
IC50 ([1]; Homo sapiens, A-431, 72 h, concentration that reduces cell growth by 50%, 3 days in culture, SRB, read-out: ED50, A431): > 10 µg/mL | IC50 ([2]; Homo sapiens, 72 h, concentration that reduces cell growth by 50%, 3 days in culture, SRB, read-out: ED50, KB): > 10 µg/mL | IC50 [3]: 10.3 µg/mL (≈ 37 µM) | times better activity than compound 2a and tamoxifen [4]: 10 times | ED50, HS 587-T (ER−) [6]: 10 µg/mL (≈ 35.9 µM) | IC50 ([7]; Homo sapiens, SK-BR-3, 72 h, concentration that reduces cell growth by 50%, 3 days in culture, SRB, read-out: ED50, SK-BR-3 (ER−, HER2+)): 0.1 µg/mL (≈ 0.359 µM) | melting point: 145 to 147 °C | IC50 [11]: 0.45 µg/mL (≈ 1.62 µM) | IC50 ([13]; Homo sapiens, SW-620, 72 h, concentration that reduces cell growth by 50%, 3 days in culture, SRB, read-out: ED50, SW620): > 10 µg/mL | IC50 [14]: 0.18 µg/mL (≈ 0.647 µM)
